The CATMoS acute toxicity set (Mansouri et al. 2021)

Test: GHS categories as the set defines them, by LD50: 1 up to 5, 2 up to 50, 3 up to 300, 4 up to 2000, 5 above 2000 mg/kg
Details: rat; in vivo; po

SMILES	GHS category
O=C(Cl)CCCCCl	4
COc1nc(C)nc(=NC(O)=NS(=O)(=O)c2ccccc2C(=O)O)[nH]1	5
CCCc1c(Cc2ccc(-c3sccc3-c3nn[nH]n3)cc2)c(=O)nc2nc[nH]n12	4
CC(C)C(=O)c1ccc2cc(CC(=O)O)ccc2c1	5
CC(C)(C)NC(=O)[C@@H]1CN(Cc2cccnc2)CCN1C[C@@H](O)C[C@@H](Cc1ccccc1)C(=O)N[C@H]1c2ccccc2C[C@H]1O	5
CCCC(C)O (stereo not drawn)	5
CCCCC(CC)CNc1ccc2ccccc2c1N=Nc1ccc(N=Nc2ccccc2C)cc1C (stereo not drawn)	5
CCOC(=O)C1CCC(C(=O)OCC)CC1 (stereo not drawn)	5
OC[C@H]1NC[C@H](O)[C@@H](O)[C@@H]1O	5
C[C@@H]1O[C@@H]1P(=O)(O)O	5
CCN(CCCSc1nnnn1C)C(=O)C1CCCC1	4
CCOC(=O)c1cc(=O)c2c(OCC(O)COc3cccc4oc(C(=O)OCC)cc(=O)c34)cccc2o1	5
O=C(Cn1cnnn1)N[C@@H]1C(=O)N2C(C(=O)O)=C(CSc3nncs3)CS[C@H]12	5
Cn1cc(C(=O)Cl)c(C(F)F)n1	5
CO[C@@H](c1cc(C)c(O)c(C)c1)[C@@H](C)CO	5
CCCCCCCCCCCCCCCCCC(=O)OC	5
C[C@H]1O[C@]2(CS1)CN1CCC2CC1	3
COc1cc(OC)nc(NC(=O)Oc2ccccc2)n1	5
CC1(C)Oc2cc(C(=O)c3ccccc3)ccc2NC1=O	5
CN1C2=CC(=O)C(=NNC(N)=O)C=C2CC1S(=O)(=O)O (stereo not drawn)	5
COC1=CC(=O)C[C@@H](C)[C@]12Oc1c(Cl)c(OC)cc(OC)c1C2=O	5
CCOC(=O)C1=C(C)NC(C)=C(C(=O)OCCN2C(=O)c3ccccc3S2(=O)=O)C1C (stereo not drawn)	5

SMILES	GHS category
C/C=C(\C)C(=O)OC/C=C(\C)CCC=C(C)C	5
Nc1c[n+](N2CCOCC2)no1	4
CC(=O)OCC(=O)[C@@]1(O)CC[C@H]2[C@@H]3C[C@H](C)C4=CC(=O)C=C[C@]4(C)[C@H]3[C@@H](O)C[C@@]21C	5
CC(C)=CCC(C#N)(CCN1CCOCC1)c1cccc2ccccc12 (stereo not drawn)	4
Nc1ccc(C(=O)O)cc1	5
COC1=C(OC)C(=O)C(CC=C(C)CCC=C(C)CCC=C(C)CCC=C(C)CCC=C(C)CCC=C(C)CCC=C(C)CCC=C(C)CCC=C(C)C)=C(C)C1=O	5
CCN(CCOC(C)=O)c1ccc(N=Nc2nc3ccc(Cl)cc3s2)cc1	5
FC(F)(F)c1cccc(N2CCc3ccccc3C2c2ccccc2)c1 (stereo not drawn)	4
CCCCCCOC(=O)C(C)C	5
O=C(NNCc1ccccc1)C(O)C(O)C(O)CO (stereo not drawn)	5
O=[N+]([O-])c1ccc(CCc2ccc([N+](=O)[O-])cc2)cc1	5
CC1CC(OC(=O)C(C)Oc2ccc(Cl)cc2)CC(C)(C)C1 (stereo not drawn)	5
Cc1cccc(C)c1NC(=O)C1CCCCN1C (stereo not drawn)	5
CC(C)(C1CCCO1)C1CCCO1 (stereo not drawn)	4
CC(=O)Nc1ncc([N+](=O)[O-])s1	4
CO[C@@]1(NC(=O)C2SC(=C(C(N)=O)C(=O)O)S2)C(=O)N2C(C(=O)O)=C(CSc3nnnn3C)CS[C@@H]21 (stereo partly drawn)	5
COC(=O)CCN[N+](C)(C)C	3
CCOC(=O)COc1ccc2c(=O)cc(-c3ccccc3)oc2c1	5
CCCCCCCCCCCCCCCCCC(=O)OCCOCCO	5
Fc1ccc(Oc2ccnc3cc(Cl)cc(Cl)c23)cc1	5
C[C@H]1C[C@@H]2[C@H]([C@@H](O)C[C@@]3(C)[C@H]2CC[C@]3(O)C(=O)CO)[C@@]2(C)C=CC(=O)C=C12	5
CC1Oc2cc(C(=O)c3ccccc3)ccc2N(C)C1=O (stereo not drawn)	5

SMILES	GHS category
CS(=O)(=O)c1cc(C(F)(F)F)ccc1C(=O)c1cnoc1C1CC1	5
CCCCCCCCCCCCCCCCCC(=O)OCC	5
CC(OC(=O)ON1C(=O)CCC1=O)OC(=O)C(C)C (stereo not drawn)	4
O=C(O)CCCC/C=C(\c1ccccc1)c1cccnc1	5
CCOC(=O)C(=O)Nc1cc(OCCOCc2ccccc2)nc(C)n1	4
CCCNC(=O)c1sc(-c2ccc(OC)c(OC)c2)nc1C	5
Cc1c(C)c2c(c(C)c1OC(=O)CCC(=O)O)CC[C@@](C)(CCC[C@H](C)CCC[C@H](C)CCCC(C)C)O2	5
Cn1c(N)cc(=O)n(C)c1=O	5
C=CCCCCCCCCC(C)CCCCCCCC (stereo not drawn)	5
CC(C)CCC1CCC(O)CC1 (stereo not drawn)	5
COCc1ccc(C=O)o1	5
O=[N+]([O-])c1ccc(OP(=S)(Oc2ccc([N+](=O)[O-])cc2)Oc2ccc([N+](=O)[O-])cc2)cc1	5
COc1ccc([C@@H]2CC(=O)c3c(O)cc(O[C@@H]4O[C@H](CO[C@@H]5O[C@@H](C)[C@H](O)[C@@H](O)[C@H]5O)[C@@H](O)[C@H](O)[C@H]4O)cc3O2)cc1O	5
CCC(=O)O[C@]1(C(C)=O)CC[C@H]2[C@@H]3CCC4=CC(=O)C=C[C@]4(C)[C@H]3[C@@H](O)C[C@@]21C	5
C=C(c1ccccc1)c1ccccc1	5
C[Si](C)(C)O[Si](C)(C)C	5
CCNC(=O)NCc1cccc(Cl)c1	5
CN1C(C(=O)Nc2ccccn2)=C(OC(=O)C(C)(C)C)c2sccc2S1(=O)=O	2
Cc1cccc(C)c1OP(=O)(Oc1c(C)cccc1C)Oc1c(C)cccc1C	5
O=c1nc(Cl)nc(Cl)[nH]1	5
NC(=O)OCC(COC(N)=O)c1ccccc1	5
O=S(=O)(O)c1ccc(Nc2nc(Nc3ccc(C=Cc4ccc(Nc5nc(Nc6ccc(S(=O)(=O)O)cc6)nc(N6CCOCC6)n5)cc4S(=O)(=O)O)c(S(=O)(=O)O)c3)nc(N3CCOCC3)n2)cc1	5

SMILES	GHS category
Nc1nc(=O)c2c([nH]1)NCC(CNc1ccc(C(=O)N[C@@H](CCC(=O)O)C(=O)O)cc1)N2C=O (stereo partly drawn)	5
O=S(=O)(O)c1ccc2c(c1)-c1nc-2nc2[nH]c(nc3nc(nc4[nH]c(n1)c1ccc(S(=O)(=O)O)cc41)-c1ccc(S(=O)(=O)O)cc1-3)c1ccc(S(=O)(=O)Nc3ccc(S(=O)(=O)CCO)cc3)cc21	5
OC(c1ccccc1)c1cccnc1Cl (stereo not drawn)	5
CCCC(O)CCO (stereo not drawn)	5
CCCCCCCCCCCCCC(=O)OCCCC	5
NCC1(CC(=O)O)CCCCC1	5
CCCCCC(=O)[Si](C)(C)C	5
C=C1NC(=O)C(C)NC(=O)C(C(C)C)NC2C=Cc3c(C(C)O)cc(nc3C2O)C(=O)OC(C)C2NC(=S)c3csc(n3)C(C(C)(O)C(C)O)NC(=O)C3CSC(=N3)C(=CC)NC(=O)C(C(C)O)NC(=O)c3csc(n3)C3(CCC(c4nc(C(N)=O)cs4)NC3c3csc2n3)NC(=O)C(C)NC1=O (stereo not drawn)	5
Cc1c(Cc2ccc(-c3ccccc3-c3nn[nH]n3)cc2)c(=O)nc2nc[nH]n12	4
O=C(COCCOCCOCC(=O)Nc1c(I)cc(I)c(C(=O)O)c1I)Nc1c(I)cc(I)c(C(=O)O)c1I	5
C=CCCCCCCCC(=O)OC	5
CC(c1ccc2c(c1)Cc1ccccc1-2)S(=O)CC(=O)O (stereo not drawn)	4
C[C@@H]1CC(C)(C)O[C@](Cn2cncn2)(c2cc3ccccc3o2)O1	4
CCCC(=O)O[C@]1(C(=O)COC(C)=O)CC[C@H]2[C@@H]3C[C@H](F)C4=CC(=O)C=C[C@]4(C)[C@@]3(F)[C@@H](O)C[C@@]21C	5
Cc1c(C)c2c(c(C)c1O)CCC(C)(COc1ccc(CC3SC(=O)NC3=O)cc1)O2 (stereo not drawn)	5
COC(=O)c1ccccc1CS(=O)(=O)NC(=O)Nc1nc(OC)cc(OC)n1	5
COc1ccc(Cl)cc1C(=O)NCCc1ccc(S(=O)(=O)NC(=O)NC2CCCCC2)cc1	5
C=CCN1CCC23c4c5ccc(O)c4OC2C(=O)CCC3(O)C1C5 (stereo not drawn)	4
CN1C(=O)CCC1=O	5
CC(C)CCCC(C)C1CCC2C3CCC4CC(OP(=O)(O)O)CCC4(C)C3CCC12C (stereo not drawn)	5
CC(C)COC(=O)CC(C)C	5
CNC(=O)c1cc(Cl)cc(C)c1NC(=O)c1cc(Br)nn1-c1ncccc1Cl	5

SMILES	GHS category
COC[C@H]1CO[C@@](Cn2cncn2)(c2cc3ccccc3o2)O1	4
CCCCCCCC/C=C\CCCCCCCC(=O)OC[C@H](O)[C@H]1OC[C@H](OC(=O)CCCCCCC/C=C\CCCCCCCC)[C@H]1OC(=O)CCCCCCC/C=C\CCCCCCCC	5
Cc1c(Cl)ccc(OC(C)C(O)=Nc2ccccc2)c1Cl (stereo not drawn)	5
COc1cc(OC)nc(NC(=O)NS(=O)(=O)c2ncccc2C(=O)N(C)C)n1	5
CO[Si](C)(OC)OC	5
CCCCC(=O)O[C@]1(C(=O)COC(C)=O)CC[C@H]2[C@@H]3CCC4=CC(=O)C=C[C@]4(C)[C@H]3[C@@H](O)C[C@@]21C	5
CC12CCC3c4ccc(OC(=O)c5ccccc5)cc4CCC3C1CCC2OC(=O)COC(=O)CCCc1ccc(N(CCCl)CCCl)cc1 (stereo not drawn)	5
CC(C)(C)c1ccc(N(CCN2CCCCC2)c2cccc(Cl)c2)cc1	5
CC(C)=CCN(CC=C(C)C)CCC(C#N)(Cc1cccc2ccccc12)C(C)C (stereo not drawn)	4
O=C(CCl)N(c1ccccc1)c1c(Cl)cccc1Cl	5
O=C1OCc2c(Cl)cccc21	4
CCCCCC(=Cc1ccccc1)C(OCC)OCC	5
CCCCOC(=O)c1ccccc1N=Nc1c(O)c(C(=O)Nc2ccc3[nH]c(=O)[nH]c3c2)cc2ccccc12	5
COC(=O)Nc1nc2ccc(OCc3ccccc3)cc2[nH]1	5
CC(C)c1nc2ccccc2c(=O)n1-c1ccncc1	4
COc1ccc(CCC(C)=O)cc1	5
N[C@@H](CSCC(=O)O)C(=O)O	5
CCCCOC(=O)C(=O)Nc1cccc(-c2nnn[nH]2)c1	5
O=C(Nc1ccc(Cl)cc1)c1cc2ccccc2cc1O	5
C=COC(=O)CCCCCCCCCCC	5
